One compound from EP2003129B1, “1H-Pyrido[3,4-B]indol-1-one and 2,3,4,9-Tetrahydro-1H-Beta-Carbolin-1-one Derivatives” (Nerviano Medical Sciences S.r.l., priority 2007, dated 2008) can be followed below.

The structures appear in SMILES notation.

The target in test [1] is FGFR1 (Homo sapiens, UniProt P11362). In words: Enzyme inhibition activity, FGFR1. The class given is biochemical. The procedure:
(§1) Operating as described above in the tests of inhibition activity on enzymes, or in an analogous way, the following data were obtained for 2-methyl-N-{4-[2-(methylamino)-2-oxoethyl]-1-oxo-2,9-dihydro-1H-beta-carbolin-6-yl}hexanamide (Compound XIIIh). The same compound was tested for cytotoxic activity on cells as described below.

In test [2] the target is VEGFR2 (Homo sapiens, UniProt P35968). In words: Enzyme inhibition activity, VEGFR2. The format is biochemical. The protocol: as §1
For test [3], the target named is RET (Homo sapiens, UniProt P07949). In words: Enzyme inhibition activity, RET. The format is biochemical. The procedure: as §1
Sequence of RET (P07949 29-1114, species assumed): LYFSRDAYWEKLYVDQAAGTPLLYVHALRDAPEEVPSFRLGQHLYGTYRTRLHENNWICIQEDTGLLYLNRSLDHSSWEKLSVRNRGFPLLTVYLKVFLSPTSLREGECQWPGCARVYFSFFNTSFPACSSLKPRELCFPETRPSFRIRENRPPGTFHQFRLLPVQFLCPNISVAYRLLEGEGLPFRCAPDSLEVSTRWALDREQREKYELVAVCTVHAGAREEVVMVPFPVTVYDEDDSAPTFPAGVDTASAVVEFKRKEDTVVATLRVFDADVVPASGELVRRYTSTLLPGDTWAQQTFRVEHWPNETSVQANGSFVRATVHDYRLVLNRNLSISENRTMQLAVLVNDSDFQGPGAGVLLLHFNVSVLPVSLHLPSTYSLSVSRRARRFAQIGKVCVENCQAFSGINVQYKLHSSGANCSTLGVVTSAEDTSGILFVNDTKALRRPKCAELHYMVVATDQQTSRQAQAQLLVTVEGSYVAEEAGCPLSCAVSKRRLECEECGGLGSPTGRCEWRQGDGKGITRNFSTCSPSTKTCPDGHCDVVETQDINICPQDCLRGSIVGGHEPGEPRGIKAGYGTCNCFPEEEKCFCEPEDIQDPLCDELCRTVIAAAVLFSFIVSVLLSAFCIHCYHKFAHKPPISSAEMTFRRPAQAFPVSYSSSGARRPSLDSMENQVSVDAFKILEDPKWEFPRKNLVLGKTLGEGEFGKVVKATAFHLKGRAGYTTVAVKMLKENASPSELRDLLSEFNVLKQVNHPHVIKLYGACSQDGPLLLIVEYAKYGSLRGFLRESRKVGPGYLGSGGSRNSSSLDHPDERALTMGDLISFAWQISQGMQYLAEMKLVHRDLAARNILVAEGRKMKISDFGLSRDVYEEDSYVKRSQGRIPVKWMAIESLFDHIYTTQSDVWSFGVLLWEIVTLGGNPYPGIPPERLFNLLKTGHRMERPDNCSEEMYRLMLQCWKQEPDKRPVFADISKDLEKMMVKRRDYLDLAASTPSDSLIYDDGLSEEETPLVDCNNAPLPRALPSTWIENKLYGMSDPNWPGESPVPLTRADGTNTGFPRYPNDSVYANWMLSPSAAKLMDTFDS
Test [4] deals with T1, PDK1 (Homo sapiens, UniProt O15530).
T1 sequence (O15530 1-556): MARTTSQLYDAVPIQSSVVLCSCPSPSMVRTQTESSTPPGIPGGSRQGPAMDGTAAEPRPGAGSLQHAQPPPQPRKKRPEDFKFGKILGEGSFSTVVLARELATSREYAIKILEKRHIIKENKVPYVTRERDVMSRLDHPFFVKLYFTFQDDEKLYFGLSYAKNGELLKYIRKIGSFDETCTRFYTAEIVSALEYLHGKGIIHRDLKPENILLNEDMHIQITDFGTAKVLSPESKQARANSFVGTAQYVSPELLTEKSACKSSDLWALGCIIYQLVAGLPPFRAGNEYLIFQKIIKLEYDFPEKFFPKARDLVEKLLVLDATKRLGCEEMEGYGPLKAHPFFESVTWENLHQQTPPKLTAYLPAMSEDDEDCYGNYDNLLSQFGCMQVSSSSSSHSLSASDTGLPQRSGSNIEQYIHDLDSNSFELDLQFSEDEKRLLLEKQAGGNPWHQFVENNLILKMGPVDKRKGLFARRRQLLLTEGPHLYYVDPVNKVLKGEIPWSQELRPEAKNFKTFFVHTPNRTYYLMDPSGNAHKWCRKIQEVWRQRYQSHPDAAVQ
The test can be described thus: Enzyme inhibition activity, PDK1. The format is biochemical. The protocol:
as §1

For test [5], the system named is A2780. The test can be described thus: Cytotoxic activity on cells (cell proliferation, cellular ATP monitoring). The class given is cell-based. As to conditions: Homo sapiens; Cell Type A2780; concentration inhibiting cell proliferation by 50%; 72 hours treatment. The protocol: Exponentially growing cells A2780 were seeded and incubated at 37°C in a humidified 5% CO2 atmosphere. After 24 hours, scalar doses of test compound were added to the medium and cells were incubated for additional 72 hours.
At the end of treatment, cell proliferation was determined by a cellular ATP monitoring system which consists of a mixture of luciferase and luciferin, reconstituted in a lysis buffer; 100 µL/well of this solution were added to the cells. The plates were then shaken for 2 minutes in an orbital shaker and were read in a luminometer, with the signal linearly proportional to the cell number.

In test [6] the target is PKAalpha (Homo sapiens, UniProt P17612). In words: Enzyme inhibition activity, PKAalpha. The class given is biochemical. The protocol: as §1
The target of test [7] is VEGFR3 (Homo sapiens, UniProt P35916). The test can be described thus: Enzyme inhibition activity, VEGFR3. The format is biochemical. The procedure:
as §1

In test [8] the target is GSK3beta (Homo sapiens, UniProt P49841). The test can be described thus: Enzyme inhibition activity, GSK3beta. The class given is biochemical. The procedure:
as §1

The target of test [9] is T2, CDK2/CYCA (Homo sapiens, UniProt P24941).
T2 construct: made in house
In words: Inhibition assay of Cdk2/Cyclin A activity. The class given is biochemical. The conditions noted are these: Enzyme CDK2/CYCA. The protocol:
Inhibition assay of Cdk2/Cyclin A activity
1.5 µM histone H1 substrate, 25 µM ATP (0.2 µCi P33γ-ATP), 30 ng of baculovirus co-expressed Cdk2/Cyclin A, 10 µM inhibitor in a final volume of 100 µl buffer (TRIS HCl 10 mM pH 7.5, MgCl2 10 mM, 7.5 mM DTT) were added to each well of a 96 U bottom well plate. After 10 min at 37 °C incubation, reaction was stopped by 20 µl EDTA 120 mM.
100 µl were transferred from each well from the kinase reaction to MultiScreen plate, to allow substrate binding to phosphocellulose filter. Plates were then washed 3 times with 150 µl/well PBS Ca^++/Mg^++ free and filtered by MultiScreen filtration system.
Filters were allowed to dry at 37°C, then 100 µl/well scintillant were added and 33P labeled histone H1 was detected by radioactivity counting in the Top-Count instrument. Results: data were analyzed and expressed as % inhibition referred to total activity of enzyme (=100%).
All compounds showing inhibition ≥ 50 % were further analyzed in order to study and define potency (IC50) as well as the kinetic-profile of inhibitor through Ki calculation. IC50 determination: the protocol used was the same described above, where inhibitors were tested at different concentrations ranging from 0.0045 to 10 µM. […]

Test [10] has as its target T3, AUR2 (Homo sapiens, UniProt O14965).
T3 sequence (O14965 1-403): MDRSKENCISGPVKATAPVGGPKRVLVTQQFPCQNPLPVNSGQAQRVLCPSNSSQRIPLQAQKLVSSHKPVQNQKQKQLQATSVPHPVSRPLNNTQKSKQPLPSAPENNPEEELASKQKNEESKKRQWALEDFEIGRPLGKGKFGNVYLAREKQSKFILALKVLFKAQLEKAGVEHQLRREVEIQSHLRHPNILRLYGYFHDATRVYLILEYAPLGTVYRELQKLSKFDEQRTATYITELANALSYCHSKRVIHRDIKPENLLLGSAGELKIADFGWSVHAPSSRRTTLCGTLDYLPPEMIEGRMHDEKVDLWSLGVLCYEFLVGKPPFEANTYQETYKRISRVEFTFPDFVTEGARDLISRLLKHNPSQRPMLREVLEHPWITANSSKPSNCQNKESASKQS
The test can be described thus: Inhibition assay of Aurora-2 activity. The class given is biochemical. The conditions noted are these: Enzyme AUR2. The protocol:
Inhibition assay of Aurora-2 activity
The inhibiting activity and the potency of selected compounds was determined through a method of assay based on the use of the streptavidin scintillation proximity assay beads (amershampharmacia biotech) run in a 96 well plates. At the end of the reaction, the biotinylated peptide substrate was captured with the beads and subsequently allowed to stratify using CsCl. When a radioactivity labeled phosphate moiety was transferred by the kinase to the beads-bound peptide, light emitted was measured in a scintillation counter.
The inhibition assay of Aurora-2 activity was performed in 96 wells plate according to the following protocol:
8 µM biotinylated peptide (4 repeats of LRRWSLG), 10 µM ATP (0.5 uCi P^33g-ATP), 10 nM Aurora2, 10 µM inhibitor in a final volume of 60 µl buffer (HEPES 50 mM pH 7.0, MgCl2 10 mM, 1 mM DTT, 0.125 mg/ml BSA, 3µM orthovanadate) were added to each well of a 96 U bottom well plate. After 30 minutes at room temperature incubation, reaction was stopped and biotinylated peptide captured by adding 100 µl of bead suspension.
100 µl of CsCl 7.5 M were added to each well and let stand one hour before radioactivity was counted in the Top-Count instrument.
Results: data were analyzed and expressed as % inhibition referred to total activity of enzyme (=100%). […]

In test [11] the target is AUR1 (Homo sapiens, UniProt Q96GD4). In words: Enzyme inhibition activity, AUR1. The format is biochemical. The procedure: as §1
Sequence of AUR1 (Q96GD4 whole entry): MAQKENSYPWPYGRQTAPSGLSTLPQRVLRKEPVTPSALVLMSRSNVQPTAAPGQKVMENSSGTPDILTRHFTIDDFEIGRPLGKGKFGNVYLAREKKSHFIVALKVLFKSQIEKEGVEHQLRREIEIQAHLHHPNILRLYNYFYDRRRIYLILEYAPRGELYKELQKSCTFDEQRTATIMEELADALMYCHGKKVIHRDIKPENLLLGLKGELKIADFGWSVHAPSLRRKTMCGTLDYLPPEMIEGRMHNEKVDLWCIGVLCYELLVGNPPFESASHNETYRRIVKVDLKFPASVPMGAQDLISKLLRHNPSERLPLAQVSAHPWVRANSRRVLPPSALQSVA
Test [12] deals with T4, JAK3 (Homo sapiens, UniProt P52333).
T4 sequence (P52333 1-1124): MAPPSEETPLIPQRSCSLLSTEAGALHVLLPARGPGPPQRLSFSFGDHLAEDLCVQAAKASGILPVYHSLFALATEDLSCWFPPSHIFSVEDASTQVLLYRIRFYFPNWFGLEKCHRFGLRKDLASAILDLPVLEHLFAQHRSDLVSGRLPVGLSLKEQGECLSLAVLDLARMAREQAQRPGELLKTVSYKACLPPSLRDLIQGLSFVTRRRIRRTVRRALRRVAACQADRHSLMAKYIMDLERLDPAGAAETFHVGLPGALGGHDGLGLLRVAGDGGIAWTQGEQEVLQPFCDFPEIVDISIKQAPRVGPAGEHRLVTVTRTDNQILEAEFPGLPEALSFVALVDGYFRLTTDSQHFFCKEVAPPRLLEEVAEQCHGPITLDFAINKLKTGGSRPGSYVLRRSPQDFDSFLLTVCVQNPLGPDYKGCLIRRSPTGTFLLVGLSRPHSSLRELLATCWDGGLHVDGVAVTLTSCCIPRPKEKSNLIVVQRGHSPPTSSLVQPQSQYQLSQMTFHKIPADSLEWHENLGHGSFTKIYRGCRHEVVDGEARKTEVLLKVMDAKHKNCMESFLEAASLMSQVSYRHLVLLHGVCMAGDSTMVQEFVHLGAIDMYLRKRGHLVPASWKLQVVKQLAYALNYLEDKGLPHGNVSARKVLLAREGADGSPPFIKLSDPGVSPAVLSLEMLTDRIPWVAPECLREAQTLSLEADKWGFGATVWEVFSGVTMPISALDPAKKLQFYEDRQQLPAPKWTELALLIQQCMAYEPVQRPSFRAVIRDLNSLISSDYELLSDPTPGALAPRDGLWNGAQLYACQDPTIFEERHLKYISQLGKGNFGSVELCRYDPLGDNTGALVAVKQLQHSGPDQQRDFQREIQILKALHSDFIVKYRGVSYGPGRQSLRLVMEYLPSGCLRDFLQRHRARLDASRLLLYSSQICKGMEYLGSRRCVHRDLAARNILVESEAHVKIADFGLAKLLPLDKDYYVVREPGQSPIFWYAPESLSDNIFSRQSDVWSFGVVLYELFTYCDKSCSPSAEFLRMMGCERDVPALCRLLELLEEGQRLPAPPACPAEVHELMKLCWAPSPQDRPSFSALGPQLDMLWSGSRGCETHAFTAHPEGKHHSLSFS
In words: Enzyme inhibition activity, JAK3. The format is biochemical. The procedure: as §1

Sequence of GSK3beta (P49841 whole entry, species assumed): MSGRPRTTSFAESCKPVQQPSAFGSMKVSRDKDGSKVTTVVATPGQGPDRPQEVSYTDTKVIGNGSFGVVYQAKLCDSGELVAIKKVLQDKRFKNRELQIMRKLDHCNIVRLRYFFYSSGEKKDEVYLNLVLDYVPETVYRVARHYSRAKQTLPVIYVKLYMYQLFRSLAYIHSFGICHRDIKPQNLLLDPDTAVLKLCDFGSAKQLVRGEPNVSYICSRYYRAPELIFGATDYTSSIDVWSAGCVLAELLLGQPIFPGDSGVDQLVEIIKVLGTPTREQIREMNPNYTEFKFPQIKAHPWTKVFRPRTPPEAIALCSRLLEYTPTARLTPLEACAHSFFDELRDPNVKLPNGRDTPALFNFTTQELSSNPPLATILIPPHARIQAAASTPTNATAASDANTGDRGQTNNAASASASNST
Sequence of VEGFR3 (P35916 25-1363, species assumed): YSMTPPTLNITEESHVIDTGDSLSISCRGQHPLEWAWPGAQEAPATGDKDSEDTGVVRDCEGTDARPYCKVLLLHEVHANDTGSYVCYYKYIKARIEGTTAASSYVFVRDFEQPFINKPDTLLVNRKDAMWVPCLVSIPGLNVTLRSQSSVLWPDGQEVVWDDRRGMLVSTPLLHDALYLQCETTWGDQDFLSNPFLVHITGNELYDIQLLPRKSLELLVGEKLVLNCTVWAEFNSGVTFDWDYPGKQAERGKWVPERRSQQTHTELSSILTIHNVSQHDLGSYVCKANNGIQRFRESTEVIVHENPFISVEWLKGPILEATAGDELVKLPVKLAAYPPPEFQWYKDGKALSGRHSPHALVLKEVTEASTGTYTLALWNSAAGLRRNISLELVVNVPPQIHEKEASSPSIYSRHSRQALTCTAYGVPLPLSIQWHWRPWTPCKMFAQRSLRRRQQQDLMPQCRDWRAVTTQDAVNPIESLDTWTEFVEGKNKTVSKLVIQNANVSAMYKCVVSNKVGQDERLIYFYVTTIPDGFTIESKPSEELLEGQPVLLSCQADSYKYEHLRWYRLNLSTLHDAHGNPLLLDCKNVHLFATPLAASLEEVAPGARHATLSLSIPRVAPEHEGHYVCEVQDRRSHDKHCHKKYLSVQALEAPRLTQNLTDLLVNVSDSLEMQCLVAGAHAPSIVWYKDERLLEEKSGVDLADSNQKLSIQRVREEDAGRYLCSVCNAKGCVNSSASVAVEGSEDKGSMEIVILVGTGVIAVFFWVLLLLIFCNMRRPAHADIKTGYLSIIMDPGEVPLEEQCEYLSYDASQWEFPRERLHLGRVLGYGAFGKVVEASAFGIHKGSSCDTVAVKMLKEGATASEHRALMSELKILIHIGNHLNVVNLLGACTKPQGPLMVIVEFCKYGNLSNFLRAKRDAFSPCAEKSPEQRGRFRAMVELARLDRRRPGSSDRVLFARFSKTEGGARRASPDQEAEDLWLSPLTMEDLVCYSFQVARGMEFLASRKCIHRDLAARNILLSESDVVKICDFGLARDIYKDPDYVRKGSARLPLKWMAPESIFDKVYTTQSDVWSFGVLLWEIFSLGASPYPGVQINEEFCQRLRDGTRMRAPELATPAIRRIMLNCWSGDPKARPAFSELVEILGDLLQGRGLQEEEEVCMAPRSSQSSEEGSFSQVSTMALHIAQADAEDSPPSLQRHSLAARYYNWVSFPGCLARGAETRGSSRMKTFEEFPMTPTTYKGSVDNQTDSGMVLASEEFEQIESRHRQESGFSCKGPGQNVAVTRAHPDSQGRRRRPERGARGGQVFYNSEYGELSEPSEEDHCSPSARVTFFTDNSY
Sequence of FGFR1 (P11362 22-822, species assumed): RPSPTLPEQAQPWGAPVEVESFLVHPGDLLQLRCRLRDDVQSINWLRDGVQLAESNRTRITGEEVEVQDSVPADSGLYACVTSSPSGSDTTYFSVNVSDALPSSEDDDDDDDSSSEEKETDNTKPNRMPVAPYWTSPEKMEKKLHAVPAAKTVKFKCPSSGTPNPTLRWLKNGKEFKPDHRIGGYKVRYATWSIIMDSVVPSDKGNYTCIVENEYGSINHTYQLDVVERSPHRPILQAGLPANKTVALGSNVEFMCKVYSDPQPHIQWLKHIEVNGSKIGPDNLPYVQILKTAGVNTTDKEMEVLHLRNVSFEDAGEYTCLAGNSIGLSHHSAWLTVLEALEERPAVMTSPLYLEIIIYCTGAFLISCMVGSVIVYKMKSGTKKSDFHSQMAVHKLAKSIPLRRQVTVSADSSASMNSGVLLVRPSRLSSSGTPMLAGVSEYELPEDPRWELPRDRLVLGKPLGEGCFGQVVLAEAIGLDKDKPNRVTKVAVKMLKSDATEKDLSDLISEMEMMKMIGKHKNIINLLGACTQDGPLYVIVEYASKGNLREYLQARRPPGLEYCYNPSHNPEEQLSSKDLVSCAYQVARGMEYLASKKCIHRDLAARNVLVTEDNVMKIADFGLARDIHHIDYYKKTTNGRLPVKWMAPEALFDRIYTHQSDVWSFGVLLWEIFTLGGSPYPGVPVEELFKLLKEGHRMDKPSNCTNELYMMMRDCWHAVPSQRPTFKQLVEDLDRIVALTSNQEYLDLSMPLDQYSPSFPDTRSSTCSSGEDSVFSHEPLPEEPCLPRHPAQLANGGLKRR

By IC50 is commonly meant the concentration that gives 50% inhibition. Consider `CCCCC(C)C(=O)Nc1ccc2[nH]c3c(=O)[nH]cc(CC(=O)NC)c3c2c1` (stereo not drawn) [Compound XIIIh, 2-Methyl-N-{4-[2-(methylamino)-2-oxoethyl]-1-oxo-2,9-dihydro-1H-beta-carbolin-6-yl}hexanamide], for which the IC50 turned out to be 2.52 µM in [1]; 1.92 µM in test [2]; 1.08 µM in test [3]; 1.3 µM in test [4]; 3.61 µM in test [5]; 0.866 µM in test [6]. Further, the IC50 came to 0.594 µM in test [7]; 1.89 µM in test [8]; 1.7 µM in test [9]; 0.051 µM in [10]; 0.423 µM in test [11]; 1.76 µM in test [12].
